Laboratory results: patent US8809274B2, “Adhesive hemostatic agent based on porcine atelocollagen and method for production thereof” (Dalim Biotech Co., Ltd., priority 2008, dated 2014)

Tested on: blood
Assay: Effect of tranexamic acid on blood coagulation (Example 5)
Assay type: cell-based
Conditions: Experimental Condition F: 0.25 mL of 0.02/0.05/0.1 wt % tranexamic acid in distilled water alone; 0.5 mL blood
Procedure: While tranexamic acid, a hemostatic agent with antifibrinolytic activity, was used under the above-described conditions, the time taken to induce blood clots was monitored.
—Experimental Condition A • 1. 0.5 mL of blood was placed on each Petri-dish. • 2. A mixture of 0.25 mL of the solution of Example 1 and 0.25 mL of the 1 wt % calcium chloride solution containing 0.71 wt % of DOPA and 0.02 wt % of tranexamic acid was added to the Petri-dish of 1. • 3. A mixture of 0.25 mL of the solution of Example 1 and 0.25 mL of the 1 wt % calcium chloride solution containing 0.71 wt % of DOPA and 0.05 wt % of tranexamic acid was added to the Petri-dish of 1. • 4. A mixture of 0.25 mL of the solution of Example 1 and 0.25 mL of the 1 wt % calcium chloride solution containing 0.71 wt % of DOPA and 0.1 wt % of tranexamic acid was added to the Petri-dish of 1. • 5. Reactions in the Petri-dishes were observed.
—Experimental Condition B • 1. 0.5 mL of blood was placed on each Petri-dish. • 2. A mixture of 0.25 mL of the solution of Example 1 and 0.25 mL of the 1.5 wt % calcium chloride solution containing 0.67 wt % of DOPA and 0.02 wt % of tranexamic acid was added to the Petri-dish of 1. • 3. A mixture of 0.25 mL of the solution of Example 1 and 0.25 mL of the 1.5 wt % calcium chloride solution containing 0.67 wt % of DOPA and 0.05 wt % of tranexamic acid was added to the Petri-dish of 1. • 4. […]

**Q.** With `NC[C@H]1CC[C@H](C(=O)O)CC1` [tranexamic acid] as the compound, how does the blood coagulation rate read?
**A.** The blood coagulation rate was “at lower rates than when in the presence of the esterified atelocollagen”.
